According to ChEMBL document CHEMBL5512602, “Unlocking the synthetic approaches and clinical application of approved small-molecule drugs for gastrointestinal cancer treatment: A comprehensive exploration” (Eur J Med Chem, 2023):

Columns and labels:
A-375 = assay: Antiproliferative activity against human A-375 cells harboring BRAF V600E mutant assessed as reduction in cell growth; type: functional, cell-based
[1] = molecular target: Vascular endothelial growth factor receptor 2 (Homo sapiens, UniProt P35968); assay: Inhibition of human recombinant VEGFR2 by FRET based Z-LYTE kinase assay
Sequence of Vascular endothelial growth factor receptor 2 (P35968 whole entry): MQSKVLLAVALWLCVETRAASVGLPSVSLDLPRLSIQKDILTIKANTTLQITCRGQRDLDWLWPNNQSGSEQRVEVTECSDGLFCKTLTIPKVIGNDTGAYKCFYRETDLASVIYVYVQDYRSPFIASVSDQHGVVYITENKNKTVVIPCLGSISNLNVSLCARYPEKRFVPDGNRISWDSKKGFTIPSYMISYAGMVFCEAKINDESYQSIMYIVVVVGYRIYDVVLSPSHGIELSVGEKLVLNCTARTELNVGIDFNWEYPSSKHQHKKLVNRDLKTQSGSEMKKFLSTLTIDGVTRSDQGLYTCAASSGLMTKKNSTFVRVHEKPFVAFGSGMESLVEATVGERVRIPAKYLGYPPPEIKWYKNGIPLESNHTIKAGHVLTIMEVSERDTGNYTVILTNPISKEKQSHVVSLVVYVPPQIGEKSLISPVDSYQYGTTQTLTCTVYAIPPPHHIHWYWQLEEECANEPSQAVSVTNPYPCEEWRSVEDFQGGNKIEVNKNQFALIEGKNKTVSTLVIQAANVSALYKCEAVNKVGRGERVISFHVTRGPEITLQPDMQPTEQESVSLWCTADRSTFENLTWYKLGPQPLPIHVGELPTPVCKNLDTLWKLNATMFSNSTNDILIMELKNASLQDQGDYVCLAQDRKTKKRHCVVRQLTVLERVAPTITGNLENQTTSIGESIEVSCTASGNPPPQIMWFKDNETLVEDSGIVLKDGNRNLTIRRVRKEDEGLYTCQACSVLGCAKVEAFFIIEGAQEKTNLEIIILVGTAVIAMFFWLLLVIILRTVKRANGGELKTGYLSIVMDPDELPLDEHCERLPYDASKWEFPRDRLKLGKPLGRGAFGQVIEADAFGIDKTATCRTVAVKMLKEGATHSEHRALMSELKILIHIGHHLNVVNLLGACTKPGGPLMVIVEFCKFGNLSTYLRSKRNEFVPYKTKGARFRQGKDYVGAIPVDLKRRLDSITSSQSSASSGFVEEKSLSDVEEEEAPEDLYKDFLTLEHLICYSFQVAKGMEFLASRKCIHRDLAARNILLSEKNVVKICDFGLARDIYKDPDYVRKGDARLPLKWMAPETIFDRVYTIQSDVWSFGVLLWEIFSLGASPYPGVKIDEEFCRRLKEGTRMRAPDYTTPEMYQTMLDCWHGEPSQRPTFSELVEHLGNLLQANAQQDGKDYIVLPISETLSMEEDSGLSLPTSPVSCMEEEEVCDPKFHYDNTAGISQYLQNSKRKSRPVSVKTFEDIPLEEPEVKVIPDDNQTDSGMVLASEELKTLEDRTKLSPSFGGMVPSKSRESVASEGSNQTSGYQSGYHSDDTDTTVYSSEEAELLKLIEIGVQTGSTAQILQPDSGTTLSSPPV

Row | EC50 (A-375) | IC50 [1] | SMILES
1 | 4 nM | – | COC(=O)N[C@@H](C)CNc1nccc(-c2cn(C(C)C)nc2-c2cc(Cl)cc(NS(C)(=O)=O)c2F)n1 [ENCORAFENIB]
2 | – | 0.35 nM | CNC(=O)c1c(C)oc2cc(Oc3ncnc4cc(OC)c(OC)cc34)ccc12 [FRUQUINTINIB]
